# Key:
# [1] = system: expression of d2EGFP in human colon cancer cells COLO 320DM cells; assay: Level of expression of d2EGFP after treatment of cells with 5-aza-2′-deoxycytidine and/or Trichostatin A (Example 6); assay type: cell-based; settings: for accumulated fluorescence intensity / average fluorescence intensity: 3 days
# Protocol: (§1) Fluorescence intensity of these cells were measured by using a cell sorter. The measurement was carried out by sorting 20,000 cells by setting living cells at a gate. The cell sorter used was made by Becton Dickinson, and operated under conditions as described in the manual attached thereto.
# (§2) In this method for detecting the fluorescence intensity, detection limit was 1, and all fluorescence intensities of 1 or less would be detected as 1. In view of this, a product of a ratio (cell %) of cells of fluorescence intensities of 2 or more in all living cells (10,000 cells) and an average of the fluorescence intensities of the cells having fluorescence intensities of 2 or more was calculated out for each experimental plot. This product is referred to as “accumulated fluorescence intensity” hereinafter and in later Examples and shown in boxed letter in the figures.
# A mixture of a plasmid (pSFVdhfr/d2EGFP) and the plasmid DNA having the Aves-derived HS4 insulator sequence was transfected to human colon cancer cells COLO 320DM cells by lipofection. The plasmid (pSFVdhfr/d2EGFP) was a plasmid having (a) IR and MAR derived from human DHFR gene locus, (b) Blasticidin tolerance gene, and (c) d2EGFP gene that was under control of TRE-promoter (Tetracycline inducing promoter). The plasmid DNA having the Aves-derived HS4 insulator sequence was identical with the one described in Example 2. From 2 days later since the gene transfection, the cells were selected with 5 μg/ml of Blasticidin (Funakoshi Corp.). After 3 to 4 weeks, many colonies of transformed cells were obtained.
# Into a culture solution of the transformed cells, of 1 μM or 3 μM of 5-aza-2′ deoxycytidine (hereinafter referred to as “5-aza” where appropriate; Sigma) was added. Thereby, the cells were treated with 5-aza for 3 days. For comparison purposes, 20 nM of Trichostatin A (hereinafter referred to as “TSA” where appropriate; histone deacetylation inhibitor, Sigma), which is known as a material for increasing gene expression from the repeated sequence, was added to some culture solutions of the transformed cells and analyzed.
# [2] = system: expression of d2EGFP in Tet-ON cells (COLO 320DM) transfected with pSFVdhfr/d2EGFP; assay: Level of expression of d2EGFP by cell sorter in HSR and DM clones of Tet-ON cells with 5-aza (Example 7); assay type: cell-based, human; settings: 1 week, Doxycycline 1 μg/ml
# Protocol: as §1, §2
# By lipofection, the pTet-ON plasmid (Clontech Laboratories Inc.) having Tet-ON gene encoding a transcription activating factor (Tet-ON protein) for promoting TRE-promoter was transfected into human colon cancer COLO 320DM. Transformed cells (hereinafter referred to as “Tet-ON cells”) which stably expressed Tet-ON protein, were selected with Hygromycin.
# Next, the pSFVdhfr/d2EGFP plasmid was transfected into the Tet-ON cells by lipofection. The cells thus obtained were selected with 5 μg/ml of Blasticidin for approximately 3 weeks, thereby obtaining a polyclonal population of the stable transformed cells.
# The expression of d2EGFP was induced in the polyclonal population by activating TRE-promoter by adding 5 μg/ml of Doxycycline (Clontech Laboratories Inc.) in the medium. FIG. 9 illustrates a result of analysis of the level of the expression of d2EGFP in this case by using a cell sorter. In FIG. 9, the value in parenthesis is an average of fluorescence intensities (i.e., average fluorescence intensity), and boxed value is an accumulated fluorescence intensity. Based on the result of FIG. 9, it was confirmed that the polyclonal population was a population for expressing d2EGFP (average fluorescence intensity: 6.25, accumulated fluorescence intensity: 536).
# From the polyclonal population, given 30 clones were obtained by a limiting dilution method that was carried out by inoculating a clone to 6 well plates with such a low cell concentration of 30 cells/ml, and incubating the plates for 10 days to 2 weeks thereby obtaining colonies thereon.
# From among the clones, 4 clones having high levels of expression of d2EGFP (Clone 4, Clone 5, Clone 6, and Clone 9) were selected by fluorescence microscopic observation. Mitotic chromosome samples of the 4 clones were prepared. By FISH method, detection for a base sequence derived from the transfected pSFVdhfr/d2EGFP plasmid was carried out. The preparation of mitotic chromosome samples and the FISH method were carried out as described in Shimizu, N., Kanda, T., and Wahl, G. M. Selective capture of acentric fragments by micronuclei provides a rapid method of purifying extrachromosomally amplified DNA. Nature Genet., 12: 65-71, 1996.
# For 4 clones, induction with Doxycycline (Clontech Laboratories Inc.; 1 μg/ml) was carried out and 5-aza (0 μM, 1 μM or 3 μM) was added in the medium. After 1 week culturing, the level of expression of d2EGFP in each clone was analyzed by using a cell sorter.
# [3] = clone 4 (HSR), 1 μM of 5-aza in the medium
# [4] = clone 4 (HSR), 3 μM of 5-aza in the medium
# [5] = clone 5 (HSR), 1 μM of 5-aza in the medium
# [6] = clone 5 (HSR), 3 μM of 5-aza in the medium
# [7] = clone 6 (HSR), 1 μM of 5-aza in the medium
# [8] = clone 6 (HSR), 3 μM of 5-aza in the medium
# [9] = clone 9 (DM), 1 μM of 5-aza in the medium
# [10] = clone 9 (DM), 3 μM of 5-aza in the medium
compound,measurement,setting,value
"Nc1ncn([C@H]2C[C@H](O)[C@@H](CO)O2)c(=O)n1 [5-aza, 5-aza-2′-deoxycytidine]",accumulated fluorescence intensity,[1]; 1 μM of 5-aza,895
same,average fluorescence intensity,[1]; 1 μM of 5-aza,9.48
same,accumulated fluorescence intensity,[1]; 3 μM of 5-aza,1040
same,average fluorescence intensity,[1]; 3 μM of 5-aza,10.93
same,fluorescence intensity of the cells after treatment versus before treatment,"[1]; fluorescence microscopic images, 1 μM of 5-aza",higher
same,accumulate fluorescence intensity,[2]; [3],453
same,average fluorescence intensity,[2]; [3],5.46
same,accumulate fluorescence intensity,[2]; [4],2300
same,average fluorescence intensity,[2]; [4],23.76
same,accumulate fluorescence intensity,[2]; [5],126
same,average fluorescence intensity,[2]; [5],2.23
same,accumulate fluorescence intensity,[2]; [6],962
same,average fluorescence intensity,[2]; [6],10.44
same,accumulate fluorescence intensity,[2]; [7],111
same,average fluorescence intensity,[2]; [7],2.09
same,accumulate fluorescence intensity,[2]; [8],1000
same,average fluorescence intensity,[2]; [8],10.87
same,accumulate fluorescence intensity,[2]; [9],13200
same,average fluorescence intensity,[2]; [9],131.86
same,accumulate fluorescence intensity,[2]; [10],24900
same,average fluorescence intensity,[2]; [10],248.60
